Measured values as given in article PMC6842052 (The Journal of pharmacy and pharmacology, 2019).

Tests used:
[1] = tested on: human potassium hERG channel; conditions: ref unpublished results; cited from earlier work
[2] = ref unpublished results; cited from earlier work
male and female rats [3] = assay: Acute toxicity study; assay type: in vivo, rat
male and female rats [4] = assay: Subchronic toxicity study
[5] = tested on: OEA levels (biomarker of FAAH activity); assay: OEA levels in liver and plasma after oral URB937; assay type: in vivo; conditions: rat, oral 0.3, 1, 3, 10 mg/kg, one hour
[6] = Pharmacokinetic study of URB937 in rats; assay type: in vivo, rat
[7] = male and female rats, single oral 100, 300, 1000 mg/kg
[8] = male rats, single oral 300 mg/kg, 7 days
[9] = male and female rats, 100, 300, 1000 mg/kg oral for 14 days
[10] = male Sprague Dawley rats, 3 mg/kg oral

Compound: NC(=O)c1cccc(-c2cc(OC(=O)NC3CCCCC3)ccc2O)c1 [URB937]
- inhibition of the human potassium hERG channel [1]: does not inhibit
- genotoxic effects in the Ames' test [2]: does not exert genotoxic effects
- food intake (male and female rats [3]; female rats, single oral 100 mg/kg, 7 days): small, but significant increase
- water consumption (male and female rats [3]; female rats, single oral 1000 mg/kg, 7 days): larger increment
- tolerability (male and female rats [3]; male and female rats, acute oral administration of supramaximal doses): well tolerated
- hematology and blood chemistry screens (male and female rats [3]; [7]): no significant alterations
- macroscopic examination at necropsy and microscopic histopathology (male and female rats [3]; [7]): did not reveal any abnormality
- mortality (male and female rats [3]; [7]): None of the animals died
- cumulative food intake (male and female rats [3]; [8]): reduced
- cumulative water intake (male and female rats [3]; [8]): reduced
- food intake (male and female rats [4]; female rats, 300 mg/kg oral once daily for 14 days): small increase
- macroscopic examination at necropsy and microscopic histopathology (male and female rats [4]; [9]): did not reveal any abnormality
- mortality (male and female rats [4]; [9]): None of the animals died
- tolerability (male and female rats [4]; male and female rats, subchronic (2 weeks) oral administration of supramaximal doses): well tolerated
- plasma glucose levels (male and female rats [4]; male rats only, 14-day oral administration): increase
- OEA levels in liver [5]: dose-dependent elevation
- OEA levels in plasma [5]: dose-dependent elevation
- AUCplasma, area under the curve [6, 10]: 656.2 ng·h/mL
- Tmax, time at which Cmax is reached [6, 10]: 1 h
- Vd, distribution volume [6, 10]: 17.9 L
- F, oral bioavailability ([6]; male Sprague Dawley rats, 3 mg/kg oral vs intravenous): 36%
- Cl, clearance ([6]; male Sprague Dawley rats, 3 mg/kg oral, noncompartmental model): 76.64 mL/min
- Cmax, maximal plasma concentration ([6]; male Sprague Dawley rats, 3 mg/kg oral, plasma): 159.47 ng/mL
- t1/2, terminal half-life ([6]; male Sprague Dawley rats, 3 mg/kg oral, 3 mg/kg): 2.702 h
- t1/2 (cleared from circulation) ([6]; male rats, 3 mg/kg oral): approximately 3 h
- brain levels of URB937 ([6]; male rats, 3 mg/kg oral, below limit of detection (LOD 50 pg/ml, LOQ 300 pg/ml)): < 0.05 ng/mL
- plasma levels of URB937 in dose-escalation study ([6]; rats, oral 0.3 to 100 mg/kg, 1 h after treatment): increased linearly in the dose range of 0.3 to 10 mg/kg and reached saturation between 30 mg/kg and 100 mg/kg
